Experimental data: ChEMBL document CHEMBL3885861, “Open TG-GATES”

Organism: Rattus norvegicus
Test: Open TG-GATES - Regimen: Daily Repeat
Format: toxicity, organism-based, Sprague-Dawley
Design: regimen Daily Repeat, gender Male, age 6 weeks
Conditions: in vivo, po, 300 mg/kg, route gavage, dose level High; for APTT / Bas / Eos / Fbg / Hb / Ht / Lym / MCH / MCHC / MCV / Mono / Neu / PT / Plat / RBC / Ret / WBC: tissue Blood; for KIDNEY_L / KIDNEY_R / KIDNEY_TOTAL: tissue Kidney; for LIVER: tissue Liver; for A/G / ALP / ALT / AST / BUN / CRE / Ca / Cl / DBIL / GLC / IP / K / LDH / Na / PL / RALB / TBIL / TC / TG / TP / gamma-GTP: tissue Plasma

CCCNC(=O)NS(=O)(=O)c1ccc(Cl)cc1 [CHLORPROPAMIDE]
TERMINAL_BW (72 h, time 3 day): 191.6 g | APTT (72 h, time 3 day): 18.9 s | Bas (72 h, time 3 day): 0.2% | Eos (72 h, time 3 day): 1% | Fbg (72 h, time 3 day): 316.6 mg/dL | Hb (72 h, time 3 day): 13.3 g/dL | Ht (72 h, time 3 day): 39.6% | Lym (72 h, time 3 day): 80.6% | MCH (72 h, time 3 day): 20.6 pg | MCHC (72 h, time 3 day): 33.5% | MCV (72 h, time 3 day): 61.6 fL | Mono (72 h, time 3 day): 1.8% | Neu (72 h, time 3 day): 15.2% | PT (72 h, time 3 day): 16.2 s | Plat (72 h, time 3 day): 110.6 x10_4/uL | RBC (72 h, time 3 day): 645.4 x10_4/ul | Ret (72 h, time 3 day): 3.8% | WBC (72 h, time 3 day): 88.9 x10_2/uL | KIDNEY_L (72 h, time 3 day): 0.8 g | KIDNEY_R (72 h, time 3 day): 0.8 g | KIDNEY_TOTAL (72 h, time 3 day): 1.7 g | LIVER (72 h, time 3 day): 8.1 g | A/G (72 h, time 3 day): 0.9 | ALP (72 h, time 3 day): 1546.2 IU/L | ALT (72 h, time 3 day): 46 IU/L | AST (72 h, time 3 day): 64.2 IU/L | BUN (72 h, time 3 day): 14.8 mg/dL | CRE (72 h, time 3 day): 0.2 mg/dL | Ca (72 h, time 3 day): 10.6 mg/dL | Cl (72 h, time 3 day): 109.8 meq/L | DBIL (72 h, time 3 day): 0.002 mg/dL | GLC (72 h, time 3 day): 166 mg/dL | IP (72 h, time 3 day): 6.6 mg/dL | K (72 h, time 3 day): 3.5 meq/L | LDH (72 h, time 3 day): 63.2 IU/L | Na (72 h, time 3 day): 142.4 meq/L | PL (72 h, time 3 day): 154.8 mg/dL | RALB (72 h, time 3 day): 2.6 g/dL | TBIL (72 h, time 3 day): 0.02 mg/dL | TC (72 h, time 3 day): 84.2 mg/dL | TG (72 h, time 3 day): 55.6 mg/dL | TP (72 h, time 3 day): 5.7 g/dL | gamma-GTP (72 h, time 3 day): 1.2 IU/L | TERMINAL_BW ([…], time 7 day): 213.5 g | TERMINAL_BW ([…], time 14 day): 232.5 g | TERMINAL_BW ([…], time 28 day): 294.1 g | APTT ([…], time 7 day): 20.1 s | Bas ([…], time 7 day): 0% | Eos ([…], time 7 day): 1% | Fbg ([…], time 7 day): 286.8 mg/dL | Hb ([…], time 7 day): 13.1 g/dL | Ht ([…], time 7 day): 40.1% | Lym ([…], time 7 day): 81% | MCH ([…], time 7 day): 20.3 pg | MCHC ([…], time 7 day): 32.8% | MCV ([…], time 7 day): 62 fL | Mono ([…], time 7 day): 2.6% | Neu ([…], time 7 day): 14.6% | PT ([…], time 7 day): 16.4 s | Plat ([…], time 7 day): 111.5 x10_4/uL | RBC ([…], time 7 day): 647.8 x10_4/ul | Ret ([…], time 7 day): 5.6% | WBC ([…], time 7 day): 95.7 x10_2/uL | APTT ([…], time 14 day): 33.4 s | Bas ([…], time 14 day): 0% | Eos ([…], time 14 day): 0.8% | Fbg ([…], time 14 day): 283.2 mg/dL | Hb ([…], time 14 day): 14.4 g/dL | Ht ([…], time 14 day): 43.1% | Lym ([…], time 14 day): 83.6% | MCH ([…], time 14 day): 20.3 pg | MCHC ([…], time 14 day): 33.5% | MCV ([…], time 14 day): 60.5 fL | Mono ([…], time 14 day): 2.2% | Neu ([…], time 14 day): 12% | PT ([…], time 14 day): 16.6 s | Plat ([…], time 14 day): 105.9 x10_4/uL | RBC ([…], time 14 day): 712.6 x10_4/ul | Ret ([…], time 14 day): 3.8% | WBC ([…], time 14 day): 79.2 x10_2/uL | APTT ([…], time 28 day): 22.6 s | Bas ([…], time 28 day): 0.2% | Eos ([…], time 28 day): 0.8% | Fbg ([…], time 28 day): 282.6 mg/dL | Hb ([…], time 28 day): 14.5 g/dL | Ht ([…], time 28 day): 44.1% | Lym ([…], time 28 day): 78.2% | MCH ([…], time 28 day): 18.5 pg | MCHC ([…], time 28 day): 32.9% | MCV ([…], time 28 day): 56.1 fL | Mono ([…], time 28 day): 2.8% | Neu ([…], time 28 day): 16.8% | PT ([…], time 28 day): 16.7 s | Plat ([…], time 28 day): 93.9 x10_4/uL | RBC ([…], time 28 day): 786 x10_4/ul | Ret ([…], time 28 day): 2.3% | WBC ([…], time 28 day): 126.5 x10_2/uL | KIDNEY_L ([…], time 7 day): 0.9 g | KIDNEY_R ([…], time 7 day): 0.9 g | KIDNEY_TOTAL ([…], time 7 day): 1.8 g | KIDNEY_L ([…], time 14 day): 1 g | KIDNEY_R ([…], time 14 day): 1 g | KIDNEY_TOTAL ([…], time 14 day): 2.1 g | KIDNEY_L ([…], time 28 day): 1.2 g | KIDNEY_R ([…], time 28 day): 1.2 g | KIDNEY_TOTAL ([…], time 28 day): 2.4 g | LIVER ([…], time 7 day): 9.7 g | LIVER ([…], time 14 day): 11 g | LIVER ([…], time 28 day): 13.2 g | A/G ([…], time 7 day): 0.9 | ALP ([…], time 7 day): 1590.8 IU/L | ALT ([…], time 7 day): 48 IU/L | AST ([…], time 7 day): 69.2 IU/L | BUN ([…], time 7 day): 18.6 mg/dL | CRE ([…], time 7 day): 0.2 mg/dL | Ca ([…], time 7 day): 10.9 mg/dL | Cl ([…], time 7 day): 110.8 meq/L | DBIL ([…], time 7 day): 0.004 mg/dL | GLC ([…], time 7 day): 187 mg/dL | IP ([…], time 7 day): 7.6 mg/dL | K ([…], time 7 day): 3.3 meq/L | LDH ([…], time 7 day): 68.4 IU/L | Na ([…], time 7 day): 145.2 meq/L | PL ([…], time 7 day): 165.2 mg/dL | RALB ([…], time 7 day): 2.6 g/dL | TBIL ([…], time 7 day): 0.016 mg/dL | TC ([…], time 7 day): 82.2 mg/dL | TG ([…], time 7 day): 60.2 mg/dL | TP ([…], time 7 day): 5.7 g/dL | gamma-GTP ([…], time 7 day): 1 IU/L | A/G ([…], time 14 day): 0.8 | ALP ([…], time 14 day): 1780 IU/L | ALT ([…], time 14 day): 51 IU/L | AST ([…], time 14 day): 72.2 IU/L | BUN ([…], time 14 day): 17.6 mg/dL | CRE ([…], time 14 day): 0.2 mg/dL | Ca ([…], time 14 day): 10.3 mg/dL | Cl ([…], time 14 day): 111.2 meq/L | DBIL ([…], time 14 day): 0.004 mg/dL | GLC ([…], time 14 day): 182.6 mg/dL | IP ([…], time 14 day): 7.8 mg/dL | K ([…], time 14 day): 3.2 meq/L | LDH ([…], time 14 day): 85 IU/L | Na ([…], time 14 day): 145.2 meq/L | PL ([…], time 14 day): 158 mg/dL | RALB ([…], time 14 day): 2.7 g/dL | TBIL ([…], time 14 day): 0.012 mg/dL | TC ([…], time 14 day): 75 mg/dL | TG ([…], time 14 day): 72.4 mg/dL | TP ([…], time 14 day): 5.9 g/dL | gamma-GTP ([…], time 14 day): 1 IU/L | A/G ([…], time 28 day): 0.8 | ALP ([…], time 28 day): 1231.8 IU/L | ALT ([…], time 28 day): 47.8 IU/L | AST ([…], time 28 day): 70 IU/L | BUN ([…], time 28 day): 20 mg/dL | CRE ([…], time 28 day): 0.2 mg/dL | Ca ([…], time 28 day): 10.5 mg/dL | Cl ([…], time 28 day): 110.4 meq/L | DBIL ([…], time 28 day): 0.002 mg/dL | GLC ([…], time 28 day): 196.4 mg/dL | IP ([…], time 28 day): 6.7 mg/dL | K ([…], time 28 day): 3 meq/L | LDH ([…], time 28 day): 67.4 IU/L | Na ([…], time 28 day): 146.4 meq/L | PL ([…], time 28 day): 148.6 mg/dL | RALB ([…], time 28 day): 2.7 g/dL | TBIL ([…], time 28 day): 0.008 mg/dL | TC ([…], time 28 day): 65.6 mg/dL | TG ([…], time 28 day): 89.4 mg/dL | TP ([…], time 28 day): 6 g/dL | gamma-GTP ([…], time 28 day): 1.2 IU/L
